Laboratory results published in patent EP0065874A1, “2-Aminophenol derivatives, methods for their preparation and composition containing the same” (ONO PHARMACEUTICAL CO., LTD., priority 1981, dated 1982).
Structures can show the parent of a compound that is named as a salt.

Columns and labels:
mice = experiment: Acute toxicity by intravenous injection; assay type: in vivo; details: intravenous injection to tail vein, doses of 10 mg/Kg and 30 mg/Kg
Protocol: On the other hand, all extent of the compounds of the present invention were confirmed that their acute toxicities were more than 30 mg/Kg by intravenous injection. Therefore, the compounds of the present invention may be considered to be sufficiently safe and suitable for medical use.

cyclooxygenase = experiment: Standard assay system using polymorphonuclear leukocytes: inhibition of HHT or TXB2 production from [1-14C] arachidonic acid; assay type: cell-based; details: polymorphonuclear leukocytes from guinea pig (4 x 10^7 cells), 5 minutes at 30°C, read-out: concentrations for 50% inhibitions on cyclooxygenase
Protocol: The experiments for screening using polymorphonuclear leukocytes was carried out as follows: The reaction mixture (0.1 ml) containing 5 umole of potassium phosphate at pH 7.4, 0.1 µmole of calsium chloride, polymorphonuclear leukocytes prepared from guinea pigs (4 x 10^7 cells) and test compound was preincubated for 5 minutes at 30°C. The reaction was started by the addition of [^1-14C] arachidonic acid ([…] dpm, 1.8 nmole), followed by the incubation at 30°C for 5 minutes. The reaction was terminated by the addition of 0.3 ml of mixture of ether/ methanol/lM citric acid (30/4/1). The organic phase (20 µl) was applied to silica gel plate. Thin layer chromatography was performed to separate each product with solvent system of ether/petroleum ether/acetic acid (85/15/0.1).
Activity of 5-lipoxygenase and cyclooxygenase were calculated from the measurement of the radioactivity corresponding to 5-HETE and 12L-hydroxy-5,8,10-heptareienoic acid (i.e. HHT) or thromboxane B2 (i.e. TXB2). [it have been known that HHT and TXB2 were the last products of the system concerning cyclooxygenase in the arachidonate cascade] Further, it was determined that the concentrations of 50% inhibitions to produce 5-HETE and HHT or TXB2 for the 50% inhibiting concentrations of 5-lipoxygenase and cyclooxygenase, respectively.

Row | SMILES | IC50 (cyclooxygenase) [µM] | dead case in 30 cases (mice)
1 | CCCCCCC(O)c1cc(C(C)(C)C)cc(N)c1O (stereo not drawn) [2-Amino-4-t-butyl-6-(1-hydroxyheptyl)phenol] | – | no dead case
2 | COc1ccc(C(=O)c2cc(Cl)cc(N)c2O)cc1.Cl [3-Amino-5-chloro-2-hydroxy-4'-methoxybenzophenone hydrochloride] | – | no dead case

More lines, main results first:

Row | IC50 (cyclooxygenase) [µM] | SMILES | dead case in 30 cases (mice)
3 | 7.2 | Nc1cc(F)cc(C(O)c2ccc(Cl)cc2)c1O (stereo not drawn) [3-Amino-4'-chloro-5-fluoro-2-hydroxybenzhydrol hydrochloride] | –
4 | 2 | Nc1cc(F)cc(C(=O)c2ccc(Cl)cc2)c1O [3-Amino-4'-chloro-5-fluoro-2-hydroxybenzophenona] | –
5 | 3 | Nc1cc(Cl)cc(C(=O)c2ccc(Cl)cc2)c1O [3-Amino-5,4'-dichloro-2-hydroxybenzophenone] | –
6 | 100 | CC(C)(C)c1cc(N)c(O)c(C(O)c2ccc(Cl)cc2)c1 (stereo not drawn) [3-Amino-5-t-butyl-4'-chloro-2-hydroxybenzhydrol hydrochloride] | –
